The test system of test [1] is Mus musculus. As to the kind of experiment: Anxiolytic effect in Albino ICR mouse assessed as time spent on open arms of elevated plus-maze test at 15 mg/ kg, ip. Format: functional. Particulars: route intraperitoneal.
In test [2] the test system is Mus musculus. In words: Anxiolytic effect in Albino ICR mouse assessed as number of entries in open arms of elevated plus-maze test at 15 mg/kg, ip. Particulars: route intraperitoneal. Format: functional.

Regarding `CSc1ccc(CC2(O)c3ccccc3C3=NCCN32)cc1` (configuration not stated), the Activity in the test on Mus musculus [1] is listed as 47.8%; in the test on Mus musculus [2], 36.3%.

As to `CSc1ccc(CC2(O)c3ccccc3C3=NCCCN32)cc1` (configuration not stated), the Activity in the test on Mus musculus [1] worked out at 73.8%; with Mus musculus [2], 66%.

In the case of `C[S+]([O-])c1ccc(CC2(O)c3ccccc3C3=NCCCN32)cc1` (configuration not stated), the Activity turned out to be 16.3% with Mus musculus [1] and 27.6% in the test on Mus musculus [2].

As for `C[S+]([O-])c1ccc(CC2(O)c3ccccc3C3=NCCN32)cc1` (configuration not stated), the Activity in the test on Mus musculus [1] worked out at 44%; with Mus musculus [2], 25.3%.

As to `CS(=O)(=O)c1ccc(CC2(O)c3ccccc3C3=NCCN32)cc1` (configuration not stated), the Activity in the test on Mus musculus [1] turned out to be 44%; in the test with Mus musculus [2], 27.3%.

Regarding `COc1ccc(CC2(O)c3ccccc3C3=NCCCCN32)cc1` (configuration not stated), the Activity was -9% in the test on Mus musculus [1] and -24.4% in the test on Mus musculus [2].

Regarding `OC1(Cc2ccc(F)cc2)c2ccccc2C2=NCCN21` (configuration not stated), the Activity in the test with Mus musculus [1] was determined as 22.9%; with Mus musculus [2], 5.5%.

On to `OC1(Cc2ccc(F)cc2)c2ccccc2C2=NCCCN21` (configuration not stated), for which the values for the Activity in the test with Mus musculus [1] and in the test on Mus musculus [2] were 44.7% and 24.7%, respectively.

On to `O=[N+]([O-])c1ccc(CC2(O)c3ccccc3C3=NCCCN32)cc1` (configuration not stated), for which the results for the Activity in the test with Mus musculus [1] and in the test with Mus musculus [2] were 59% and 44.2%, respectively.

For `OC1(Cc2ccc(Cl)cc2)c2ccccc2C2=NCCN21` (configuration not stated), the Activity in the test on Mus musculus [1] turned out to be 62.6%; with Mus musculus [2] it was 41.9%.

Regarding `OC1(Cc2ccc(Cl)cc2)c2ccccc2C2=NCCCN21` (configuration not stated), the values for the Activity with Mus musculus [1] and in the test with Mus musculus [2] were 62.6% and 47.4%, respectively.

As for `OC1(Cc2ccc(F)cc2)c2ccccc2C2=NCCCCN21` (configuration not stated), the Activity came out at 33.5% with Mus musculus [1] and 36.3% with Mus musculus [2].

With `OC1(Cc2ccc(Cl)cc2)c2ccccc2C2=NCCCCN21` (configuration not stated), the values for the Activity in the test with Mus musculus [1] and with Mus musculus [2] were 42.7% and 41%, respectively.

On to `CS(=O)(=O)c1ccc(CC2(O)c3ccccc3C3=NCCCN32)cc1` (configuration not stated), for which the Activity is reported as 13.9% in the test on Mus musculus [1] and -7.3% in the test with Mus musculus [2].

With `O=[N+]([O-])c1ccc(CC2(O)c3ccccc3C3=NCCN32)cc1` (configuration not stated), the Activity in the test on Mus musculus [1] is on record as 36.1%; with Mus musculus [2], 33.1%.

For the molecule `COc1cc(CC2(O)c3ccccc3C3=NCCCN32)cc(OC)c1OC` (configuration not stated), the Activity with Mus musculus [1] stood at 44.2%; with Mus musculus [2], 46.8%.

As for `OC1(Cc2ccc3c(c2)OCO3)c2ccccc2C2=NCCCN21` (configuration not stated), the Activity with Mus musculus [1] turned out to be 48.7%; in the test on Mus musculus [2] it was 45.9%.

Regarding `COc1ccc(CC2(O)c3ccccc3C3=NCCN32)cc1` (configuration not stated), the Activity is reported as 48.9% with Mus musculus [1] and 34.6% in the test on Mus musculus [2].

As to `OC1(Cc2ccc3c(c2)OCO3)c2ccccc2C2=NCCN21` (configuration not stated), the Activity with Mus musculus [1] is 51.3%; in the test on Mus musculus [2] it was 44.8%.

Regarding `COc1ccc(CC2(O)c3ccccc3C3=NCCCN32)cc1` (configuration not stated), the results for the Activity with Mus musculus [1] and in the test on Mus musculus [2] were 51.8% and 60.2%, respectively.

Regarding `COc1cc(CC2(O)c3ccccc3C3=NCCN32)cc(OC)c1OC` (configuration not stated), the Activity with Mus musculus [1] is -7.9%; in the test on Mus musculus [2] it was -16%.
